Results taken from US6858591B2, “Antibiotic AA 896 analogs” (Wyeth Holdings Corporation, priority 2001, dated 2005).
Like-named read-outs stand apart in the source and are kept apart here.

Key:
Test in all cases: In vitro MIC, broth dilution
Type in all cases: cell-based
M. morganii GC 4531 = settings: Morganella morganii, GC4531; M. morganii GC 4531; read-out: MIC
E. coli GC 2203 = settings: Escherichia coli, GC2203; E. coli GC 2203; read-out: MIC
E. coli GC 4559 = settings: Escherichia coli, GC4559; E. coli GC 4559; read-out: MIC
K. pneumoniae GC 4534 = settings: Klebsiella pneumoniae, GC4534; K. pneumoniae GC 4534; read-out: MIC
CNS GC 4547 = system: CNS GC 4547
Method: (§1) The minimum inhibitory concentration (MIC), the lowest concentration of the antibiotic which inhibits growth of the test organism, is determined by the broth dilution method using Muller-Hinton II […] (Baltimore Biological Laboratories) following the recommendations of National Committee for Clinical Laboratory Standards. [Reference for the Methods for dilution antimicrobial susceptibility tests for bacteria that grow aerobically: National Committee for Clinical Laboratory Standards, 1997. Approved standard M7-A National Committee for Clinical Laboratory Standards, Wayne, Pa.] An inoculum level of 5×10^5 CFU/ml, and a range of antibiotic concentrations (64-0.06 μg/ml) is used. The MIC is determined after the microtiter plates are incubated for 18 hours at 35° C. in an ambient air incubator. The test organisms comprise a spectrum of gram-positive bacteria including Staphylococcus sp., Streptococcus sp. and Enterococcus sp. These organisms include recent clinical isolates that are resistant to methicillin, penicillin and vancomycin.

CNS GC 4537 = system: CNS GC 4537
Method: as §1

S. aureus GC 4536 = settings: Staphylococcus aureus, GC4536; S. aureus GC 4536; read-out: MIC
Method: as §1

E. faecalis GC 4555 = settings: Enterococcus faecalis, GC4555; E. faecalis GC 4555; read-out: MIC
Method: as §1

S. aureus GC 1131 = settings: Staphylococcus aureus, GC1131; S. aureus GC 1131; read-out: MIC
Method: as §1

E. faecalis GC 2242 = settings: Enterococcus faecalis, GC2242; E. faecalis GC 2242; read-out: MIC
Method: as §1

E. faecalis GC 842 = settings: Enterococcus faecalis, GC842; E. faecalis GC 842; read-out: MIC
Method: as §1

S. aureus GC 2216 = settings: Staphylococcus aureus, GC2216; S. aureus GC 2216; read-out: MIC
Method: as §1

CNS GC 4538 = system: CNS GC 4538
Method: as §1

E. cloacae GC 3783 = settings: Enterobacter cloacae, GC3783; E. cloacae GC 3783; read-out: MIC
E. coli GC 4560 = settings: Escherichia coli, GC4560; E. coli GC 4560; read-out: MIC
S. marcescens GC 4077 = settings: Serratia marcescens, GC4077; S. marcescens GC 4077; read-out: MIC
E. coli GC 3226 = settings: Escherichia coli, GC3226; E. coli GC 3226; read-out: MIC
C. albicans GC 3066 = settings: Candida albicans, GC3066; C. albicans GC 3066; read-out: MIC
P. aeruginosa GC 2214 = settings: Pseudomonas aeruginosa, GC2214; P. aeruginosa GC 2214; read-out: MIC
P. aeruginosa GC 4532 = settings: Pseudomonas aeruginosa, GC4532; P. aeruginosa GC 4532; read-out: MIC

MIC (M. morganii GC 4531) [µg/mL]	MIC (E. coli GC 2203) [µg/mL]	MIC (E. coli GC 4559) [µg/mL]	MIC (K. pneumoniae GC 4534) [µg/mL]	MIC (CNS GC 4547; CNS GC 4547, read-out: MIC) [µg/mL]	MIC (CNS GC 4537; CNS GC 4537, read-out: MIC) [µg/mL]	MIC (S. aureus GC 4536) [µg/mL]	MIC (E. faecalis GC 4555) [µg/mL]	MIC (S. aureus GC 1131) [µg/mL]	MIC (E. faecalis GC 2242) [µg/mL]	MIC (E. faecalis GC 842) [µg/mL]	MIC (S. aureus GC 2216) [µg/mL]	MIC (CNS GC 4538; CNS GC 4538, read-out: MIC) [µg/mL]	MIC (E. cloacae GC 3783) [µg/mL]	MIC (E. coli GC 4560) [µg/mL]	MIC (S. marcescens GC 4077) [µg/mL]	MIC (E. coli GC 3226) [µg/mL]	MIC (C. albicans GC 3066) [µg/mL]	MIC (P. aeruginosa GC 2214) [µg/mL]	MIC (P. aeruginosa GC 4532) [µg/mL]	SMILES	further results
> 128	> 128	> 128	> 128	> 128	> 128	> 128	> 128	> 128	> 128	> 128	> 128	> 128	> 128	> 128	> 128	> 128	> 128	> 128	> 128	CCOC(=O)C(NCCCNC(=O)[C@H](CC(C)C)NC(=O)OCc1ccccc1)C(OC(C)=O)[C@H]1O[C@@H](n2ccc(=O)[nH]c2=O)[C@H](OC(C)=O)[C@@H]1OC(C)=O (stereo partly drawn) [Example 38b, Ethyl (5S)-12-{(R)-(acetyloxy)[(2R,3R,4R,5R)-3,4-bis(acetyloxy)-5-(2,4-dioxo-3,4-dihydro-1(2H)-pyrimidinyl)tetrahydro-2-furanyl]methyl}-5-isobutyl-3,6-dioxo-1-phenyl-2-oxa-4,7,11-triazatridecan-13-oate]	–
> 128	> 128	> 128	> 128	> 128	> 128	> 128	> 128	> 128	> 128	> 128	> 128	> 128	> 128	> 128	> 128	> 128	> 128	> 128	> 128	CCOC(=O)C(NCCCNC(=O)[C@H](CC(C)C)NC(=O)OCc1ccccc1)C(OC(C)=O)[C@H]1O[C@H](n2ccc(=O)[nH]c2=O)[C@H](OC(C)=O)[C@@H]1OC(C)=O (stereo partly drawn) [Example 38a, Ethyl (5S)-12-{(R)-(acetyloxy)[(2R,3R,4R,5S)-3,4-bis(acetyloxy)-5-(2,4-dioxo-3,4-dihydro-1(2H)-pyrimidinyl)tetrahydro-2-furanyl]methyl}-5-isobutyl-3,6-dioxo-1-phenyl-2-oxa-4,7,11-triazatridecan-13-oate]	–

SMILES	MIC (M. morganii GC 4531) [µg/mL]	MIC (E. coli GC 2203) [µg/mL]	MIC (E. coli GC 4559) [µg/mL]	MIC (K. pneumoniae GC 4534) [µg/mL]	MIC (CNS GC 4547; CNS GC 4547, read-out: MIC) [µg/mL]	MIC (CNS GC 4537; CNS GC 4537, read-out: MIC) [µg/mL]	MIC (S. aureus GC 4536) [µg/mL]	MIC (E. faecalis GC 4555) [µg/mL]	MIC (S. aureus GC 1131) [µg/mL]	MIC (E. faecalis GC 2242) [µg/mL]	MIC (E. faecalis GC 842) [µg/mL]	MIC (S. aureus GC 2216) [µg/mL]	MIC (CNS GC 4538; CNS GC 4538, read-out: MIC) [µg/mL]	MIC (E. cloacae GC 3783) [µg/mL]	MIC (E. coli GC 4560) [µg/mL]	MIC (S. marcescens GC 4077) [µg/mL]	MIC (E. coli GC 3226) [µg/mL]	MIC (C. albicans GC 3066) [µg/mL]	MIC (P. aeruginosa GC 2214) [µg/mL]	MIC (P. aeruginosa GC 4532) [µg/mL]	further results
CCOC(=O)C(NCCCNC(=O)[C@@H](NC(=O)[C@H](CCCNC(=N)N[N+](=O)O)NC(=O)N[C@H](C(=O)OCc1ccccc1)C(C)C)C(C)O)C(O)[C@H]1O[C@H](n2ccc(=O)[nH]c2=O)[C@H](OC(C)=O)[C@@H]1OC(C)=O (stereo partly drawn) [Example 34, 16-Benzyl 2-ethyl (1R,9S,12S,16S)-1-[(2R,3R,4R,5S)-3,4-bis(acetyloxy)-5-(2,4-dioxo-3,4-dihydro-1(2H)-pyrimidinyl)tetrahydro-2-furanyl]-12-(3-{[(2,2-dioxido-2lambda˜1˜-diazanyl)(imino)methyl]amino}propyl)-1-hydroxy-9-[(1S)-1-hydroxyethyl]-17-methyl-8,11,14-trioxo-3,7,10,13,15-pentaazaoctadecane-2,16-dicarboxylate]	> 128	> 128	> 128	> 128	–	–	> 128	> 128	> 128	128	> 128	> 128	–	> 128	> 128	> 128	> 128	128	128	128	MIC (CNS GC 4547): > 128 µg/mL; MIC (CNS GC 4537): > 128 µg/mL; MIC (CNS GC 4538): > 128 µg/mL
